1 compound from patent publication EP1266659A1, “Pyridoxal in combination with serotonin re-uptake inhibitor for the treatment of hot flushes” (Pantarhei Bioscience B.V., priority 2001, dated 2002) can be followed below.

For this assay, the system named is peri-menopausal women experiencing at least 40-50 hot flushes per week.

Counter-ions that a name gives are not always drawn.

Description: A clinical study is conducted with 12 peri-menopausal women experiencing at least 40-50 hot flushes per week.
The study is designed as a so called double blind, cross-over study. During the study the medication is orally administered once a day. The visual aspects of the medication used is always the same, i.e. these aspects offer no clues as to the nature of the medication. The volunteers are asked to record the number of hot flushes they experience in a dairy (at least 1 entry per day).
During an initial period of 56 days (days 1-56), all 12 participants receive the same medication, i.e. 20 mg Fluoxetine HCl. Subsequently, the twelve women are randomly divided into two groups, i.e. group A with six women and group B with six women.

As to `CNCCC(Oc1ccc(C(F)(F)F)cc1)c1ccccc1` (stereo not drawn) [Fluoxetine HCl], the “number of hot flushes experienced per day” value (all 12 participants, 20 mg Fluoxetine HCl orally once a day, days 1-56) is on record as “decreases substantially over time”. Moreover, for the setting “group A, 5mg Fluoxetine HCl + placebo orally once a day, days 169-281 (after the combination with vitamin B6)”, the “number of hot flushes” value is on record as “increases again over time”. The “daily number of hot flushes experienced” value (group B, 5mg Fluoxetine HCl + placebo orally once a day, days 57-168 (after 20 mg Fluoxetine HCl)) is “increases over time”.
